Measured values: patent US20050209336A1, “EP2 receptor agonists” (priority 2003, published 2005)
Read-outs that look alike come from different tables or passages of the source.

Key:
Type in all cases: cell-based
human EP2 receptor = biological target: T1, human EP2 receptor (Homo sapiens, UniProt P43116); assay: cAMP production in HEK cells stably expressing the human EP2 receptor; details: 15 min stimulation, 4 experiments
T1 construct: expressed in transfected cells; host or cells: HEK cells (HEK-EP2)
T1 sequence (P43116 whole entry): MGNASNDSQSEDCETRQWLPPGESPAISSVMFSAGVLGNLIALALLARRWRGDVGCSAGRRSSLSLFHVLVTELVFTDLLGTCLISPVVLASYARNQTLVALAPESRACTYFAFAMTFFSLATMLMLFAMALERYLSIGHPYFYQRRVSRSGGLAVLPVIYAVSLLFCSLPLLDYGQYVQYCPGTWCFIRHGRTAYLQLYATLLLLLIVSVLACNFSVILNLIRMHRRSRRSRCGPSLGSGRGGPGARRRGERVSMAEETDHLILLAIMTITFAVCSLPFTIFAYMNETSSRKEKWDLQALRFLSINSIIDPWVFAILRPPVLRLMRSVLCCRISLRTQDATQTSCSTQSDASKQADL
Description: The following describes an in vitro assay to determine the effect of compounds on cyclase production, that is, to determine their functional efficacy at the EP2 receptor.
HEK cells stably expressing the human EP2 receptor were used for these assays. HEK-EP2 cells were cultured in 96-well, poly-L-lysine coated plates at a density of 50,000 cells/well, and grown to confluence in humidified […] at 37° C. Culture medium was DMEM supplemented with 10% foetal bovine serum, 100 U/ml penicillin, […], 2.5 µg/ml fungizone, 2 mM glutamine, 250 µg/ml geneticin and 200 µg/ml zeocin.
On reaching confluence, culture media was rinsed off using DMEM with no additions, before 175 µl assay buffer (DMEM containing 1 mM 3-isobutyl-1-methylxanthine and 3 µM indomethacin) was added to each well. This was allowed to incubate for 1 hr before the cells were stimulated with the test compounds (in triplicate) at final concentrations of 10^−9M to 10^−5M for 15 minutes. The assay was terminated by the addition of 25 µl 1M hydrochloric acid. Plates were then frozen for a minimum of 12 hours or until required for radioligand displacement assay.
Plates were thawed quickly at 37° C., and neutralised with 25 µl 1M sodium hydroxide. 30 µl of supernatant was transferred to 96-well Millipore (MAFNOB) plates coated with 0.1% Polyethylenimine. These supernatants were diluted by addition of 90[…]1 cAMP assay buffer (50 mM Tris, 5 mM EDTA, pH 7.0). A cAMP standard curve (10^−11M to 10^−5M) was constructed. 15 µl of 3′:5′-cAMP-dependent protein kinase (final concentration 8 µg/well), and 15 µl [^3H]-cAMP (final concentration 2 nM/well) were added to each well.
Plates were incubated on ice for 2 hours, before bound and free radiolabel were separated by vacuum filtration harvesting on the Millipore manifold, using ice cold water as the termination buffer. Filter plates were allowed to dry overnight, before addition of 50 µl Microscint. Radioactivity was determined using the Microbeta Trilux scintillation counter. cAMP accumulation was determined from the standard curve, and the values plotted as pmoles cAMP/well.

[1] = test system: human myometrial smooth muscle; assay: Human myometrial activity: inhibition of electrical field stimulation (EFS) induced contractions; details: for maximum inhibitory effect: inhibition of EFS-induced contractions / EC50: human myometrium strips; for effect on electrically-induced (EFS-evoked) contractions: human myometrium, 10^-6 to 10^-4 M (FIG. 6), 1x10^-7 to 1x10^-4 M; for EC50: inhibition of EFS-evoked response
Description: The following describes an in vitro functional assay, using human myometrial smooth muscle, to determine the affinity of the test compounds at the EP2 receptor in human tissues.
Sections of human myometrium were prepared from samples of surgically removed uterus longitudinal myometrial muscle strips (2 mm wide by 10 mm long) were then cut and suspended between stainless steel hooks in organ chambers containing oxygenated (95% O2/5% CO2) Krebs solution at 37° C. The composition of the Krebs solution was as follows: NaCl (118.2 mM), KCl (4.69 mM), MgSO4.7H2O (1.18 mM), KH2PO4 (1.19 mM), glucose (11.1 mM), NaHCO3 (25.0 mM), CaCl2.6H2O (2.5 mM), indomethacin 3×10^−6M.
Tissues were placed under a tension equivalent to 25 mN and left overnight at room temperature. The following day the tissues were maintained at 37° C., washed and placed under a tension of 15 mN then allowed to equilibrate for a period of at least 30 minutes. Responses were recorded using isometric transducers coupled to an Apple Macintosh computer via a MacLab interface. After 60 minutes, the muscle sections of the human myometrium were stimulated electrically (15 ms pulse width, for 10 s every 100 s at 15V and 0.5-40 Hz) using parallel platinum wire electrodes and a Multistim D330 pulse stimulator. Upon electrical stimulation, the strips of human myometrial smooth muscle responded with a rapid contraction. Once the response to electrical stimulation had stabilised (stimulated responses differed by no more than 10%), the strips were exposed to increasing concentrations of test compounds (1×10^−7 to 1×10^−4M, incubated for at least 15 minutes at each concentration). At the end of the experiment, application of sodium nitroprusside (SNP, a nitric oxide donor that causes smooth muscle relaxation) (1×10^−4M) was used to produce a standard relaxatory response. To determine the affinity of the compounds, the concentration of test compound required to produce half-maximal effects (EC50) was calculated, as was the maximum response (calculated as a percentage of the standard response produced with SNP).

[2] = test system: TNFα production by LPS-stimulated monocytes; assay: Monocyte assay: LPS-induced TNFα secretion; details: Homo sapiens, inhibition of TNFα production, LPS 100 ng/ml, 24 h, mean of three donors
From the text: Monocytes are peripheral mononuclear phagocytes that participate in inflammatory responses. TNFα production by monocytes plays an important role in inflammatory responses and can cause considerable tissue damage if the level remained unchecked. Inhibition of TNFα secretion by activated monocytes may provide an attractive therapy for the treatment of inflammatory conditions.
A 96 well in vitro assay was established to determine the effects of test compounds on LPS-induced TNFα secretion by human peripheral blood monocytes. The level of TNFα in assay supernatants was quantified using a standard sandwich ELISA.
Human peripheral blood mononuclear cells from healthy volunteers were isolated from whole blood by Ficoll-Hypaque density centrifugation and adherence to plastic. The non-adherent lymphocyte fraction was used to set up the lymphocyte assay and the adherent monocytes were then recovered by scraping and subsequently used in the monocyte assay.
For the monocyte assay, the cells were plated onto 96-well plates and pre-treated for 1 hour at 37° C./5% CO2 with the test compound (Peak 1, mixture 1 acid; Peak 1, mixture 2 acid; AH-13205 racemate), followed by the addition of LPS (100 ng/ml) to initiate the reaction. The plate was incubated for 24 hours and supernatants were recovered for the measurement of TNFα production by ELISA.

[3] = log scale, read-out: Mean Log (EC50) (converted)

Row | SMILES | EC50 (human EP2 receptor; [3]) [nM] | maximum inhibitory effect: inhibition of EFS-induced contractions [1] [%] | effect on electrically-induced (EFS-evoked) contractions [1] | effect on electrically-induced (EFS-evoked) contractions ([1]; listed as AH-13205) | EC50 [1] [nM] | EC50 ([2]; read-out: Mean EC50) [nM] | EC50 [2, 3] [nM] | EC50 (human EP2 receptor; read-out: Mean EC50) [nM]
1 | CCCCCC(O)c1ccc(C2CCC(=O)C2CCCCCCC(=O)O)cc1 (racemic) [AH13205, (±)-trans-2-[4-(1-hydroxyhexyl)phenyl]-5-oxo-cyclopentaneheptanoic acid, reference compound] | 32.4 | 49±5 | concentration-dependent inhibition | inhibit electrically-induced contractions | 5010 | 19800 | 19800 | 
2 | CCCCC[C@H](O)c1ccc([C@H]2CCC(=O)[C@@H]2CCCCCCC(=O)O)cc1 (single isomer, unassigned) [Peak 1, Mixture 1 acid] | 9.77 | 56±5 | concentration-dependent inhibition |  | 1260 | 1780 | 1780 | 10
3 | CCCCC[C@@H](O)c1ccc([C@H]2CCC(=O)[C@@H]2CCCCCCC(=O)O)cc1 (single isomer, unassigned) [Peak 1, Mixture 2 acid] |  | 57±2 | concentration-dependent inhibition |  | 5010 | 6730 | 6730 | 56
